# Measurements: patent US12077503B2, “Substituted cyclic amides and their use as herbicides” (FMC CORPORATION, priority 2015, dated 2024)
# Like-named read-outs stand apart in the source and are kept apart here.
# What was measured:
# Assay type in all cases: in vivo
# [1] = tested on: barnyardgrass (Echinochloa crus-galli); assay: Test A preemergence; conditions: Echinochloa crus-galli, pre-emergence, 240 h; for pest or weed control at 125 g/ha: 125 g ai/ha; for pest or weed control at 500 g/ha: 500 g ai/ha
# Method in brief: (§1)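 Greenhouse, ~10 d after spray; visual injury vs untreated controls, 0 = no effect, 100 = complete control. Preemergence: directed soil spray over planted seeds. Postemergence: plants 2–10 cm, 1–2 leaf stage. Loam/sand blend. Compound in non-phytotoxic solvent with surfactant.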
# [2] = tested on: Galium (catchweed bedstraw, Galium aparine); assay: Test A postemergence; conditions: Galium, post-emergence, 240 h, postemergence; for pest or weed control at 125 g/ha: 125 g ai/ha; for pest or weed control at 500 g/ha: 500 g ai/ha, 0 to 100 scale, 0 is no effect, 100 is complete control
# Method in brief: as §1
# Kochia (Kochia scoparia) = assay: Test A postemergence; conditions: Bassia scoparia, post-emergence, 240 h, postemergence; for pest or weed control at 125 g/ha: 125 g ai/ha; for pest or weed control at 500 g/ha: 500 g ai/ha, 0 to 100 scale, 0 is no effect, 100 is complete control
# Method in brief: as §1
# [3] = tested on: barnyardgrass (Echinochloa crus-galli); assay: Test A postemergence; conditions: Echinochloa crus-galli, post-emergence, 240 h, postemergence; for pest or weed control at 125 g/ha: 125 g ai/ha; for pest or weed control at 500 g/ha: 500 g ai/ha, 0 to 100 scale, 0 is no effect, 100 is complete control
# Method in brief: as §1
# [4] = tested on: blackgrass (Alopecurus myosuroides); assay: Test A postemergence; conditions: Alopecurus myosuroides, post-emergence, 240 h, postemergence; for pest or weed control at 125 g/ha: 125 g ai/ha; for pest or weed control at 500 g/ha: 500 g ai/ha, 0 to 100 scale, 0 is no effect, 100 is complete control
# Method in brief: as §1
# corn (Zea mays) = assay: Test A postemergence; conditions: Zea mays, post-emergence, 240 h, postemergence; for plant injury at 125 g/ha: 125 g ai/ha; for plant injury at 500 g/ha: 500 g ai/ha, 0 to 100 scale, 0 is no effect, 100 is complete control
# Method in brief: as §1
# [5] = tested on: giant foxtail (Setaria faberii); assay: Test A postemergence; conditions: Setaria faberi, post-emergence, 240 h, postemergence; for pest or weed control at 125 g/ha: 125 g ai/ha; for pest or weed control at 500 g/ha: 500 g ai/ha, 0 to 100 scale, 0 is no effect, 100 is complete control
# Method in brief: as §1
# [6] = tested on: pigweed (Amaranthus retroflexus); assay: Test A postemergence; conditions: Amaranthus retroflexus, post-emergence, 240 h, postemergence; for pest or weed control at 125 g/ha: 125 g ai/ha; for pest or weed control at 500 g/ha: 500 g ai/ha, 0 to 100 scale, 0 is no effect, 100 is complete control
# Method in brief: as §1
# [7] = tested on: ragweed (common ragweed, Ambrosia elatior); assay: Test A postemergence; conditions: Ambrosia artemisiifolia, post-emergence, 240 h, postemergence; for pest or weed control at 125 g/ha: 125 g ai/ha; for pest or weed control at 500 g/ha: 500 g ai/ha, 0 to 100 scale, 0 is no effect, 100 is complete control
# Method in brief: as §1
# [8] = tested on: ryegrass, Italian (Italian ryegrass, Lolium multiflorum); assay: Test A postemergence; conditions: Lolium multiflorum, post-emergence, 240 h, postemergence; for pest or weed control at 125 g/ha: 125 g ai/ha; for pest or weed control at 500 g/ha: 500 g ai/ha, 0 to 100 scale, 0 is no effect, 100 is complete control
# Method in brief: as §1
# [9] = tested on: wheat (Triticum aestivum); assay: Test A postemergence; conditions: Triticum aestivum, post-emergence, 240 h, postemergence; for plant injury at 125 g/ha: 125 g ai/ha; for plant injury at 500 g/ha: 500 g ai/ha, 0 to 100 scale, 0 is no effect, 100 is complete control
# Method in brief: as §1
# [10] = tested on: barnyardgrass (Echinochloa crus-galli); assay: Test B flooded paddy test; conditions: Echinochloa crus-galli, 250 g ai/ha, Flood, read-out: Barnyardgrass plant response rating
# Method in brief: (§2)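 2-leaf plants; pots flooded 3 cm over soil; cpd added to paddy water; depth held; greenhouse 13–15 d; visual rating vs controls, 0 = no effect, 100 = complete control.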
# [11] = tested on: ducksalad (Heteranthera limosa); assay: Test B flooded paddy test; conditions: Heteranthera limosa, 250 g ai/ha, Flood, read-out: Ducksalad plant response rating
# Method in brief: as §2
# rice (Oryra sativa) = assay: Test B flooded paddy test; conditions: Oryza sativa, 250 g ai/ha, Flood, read-out: Rice plant response rating
# Method in brief: as §2
# [12] = tested on: sedge, umbrella (small-flower umbrella sedge, Cyperus difformis); assay: Test B flooded paddy test; conditions: Cyperus difformis, 250 g ai/ha, Flood, read-out: Sedge, Umbrella plant response rating
# Method in brief: as §2
# [13] = preemergence, 0 to 100 scale where 0 is no effect and 100 is complete control, approx. 10 d, read-out: Barnyardgrass plant response rating
# [14] = preemergence, 0 to 100 scale where 0 is no effect and 100 is complete control, read-out: Barnyardgrass plant response rating
# [15] = visual injury on 0 to 100 scale (0 no effect, 100 complete control), approx. 10 d, read-out: Galium plant response rating
# [16] = read-out: Galium plant response rating
# [17] = visual injury on 0 to 100 scale (0 no effect, 100 complete control), approx. 10 d, read-out: Kochia plant response rating
# [18] = read-out: Kochia plant response rating
# [19] = visual injury on 0 to 100 scale (0 no effect, 100 complete control), approx. 10 d, read-out: Barnyardgrass plant response rating
# [20] = read-out: Barnyardgrass plant response rating
# [21] = visual injury on 0 to 100 scale (0 no effect, 100 complete control), approx. 10 d, read-out: Blackgrass plant response rating
# [22] = read-out: Blackgrass plant response rating
# [23] = visual injury on 0 to 100 scale (0 no effect, 100 complete control), approx. 10 d, read-out: Corn plant response rating
# [24] = read-out: Corn plant response rating
# [25] = visual injury on 0 to 100 scale (0 no effect, 100 complete control), approx. 10 d, read-out: Foxtail, Giant plant response rating
# [26] = read-out: Foxtail, Giant plant response rating
# [27] = visual injury on 0 to 100 scale (0 no effect, 100 complete control), approx. 10 d, read-out: Pigweed plant response rating
# [28] = read-out: Pigweed plant response rating
# [29] = visual injury on 0 to 100 scale (0 no effect, 100 complete control), approx. 10 d, read-out: Ragweed plant response rating
# [30] = read-out: Ragweed plant response rating
# [31] = visual injury on 0 to 100 scale (0 no effect, 100 complete control), approx. 10 d, read-out: Ryegrass, Italian plant response rating
# [32] = read-out: Ryegrass, Italian plant response rating
# [33] = visual injury on 0 to 100 scale (0 no effect, 100 complete control), approx. 10 d, read-out: Wheat plant response rating
# [34] = read-out: Wheat plant response rating
# [35] = 0 to 100 scale where 0 is no effect and 100 is complete control
# [36] = scale of 0 to 100 where 0 is no effect and 100 is complete control
SMILES,"pest or weed control at 125 g/ha [1, 13]","pest or weed control at 500 g/ha [1, 14]","pest or weed control at 125 g/ha [2, 15]","pest or weed control at 500 g/ha [2, 16]",pest or weed control at 125 g/ha (Kochia (Kochia scoparia); [17]),pest or weed control at 500 g/ha (Kochia (Kochia scoparia); [18]),"pest or weed control at 125 g/ha [3, 19]","pest or weed control at 500 g/ha [3, 20]","pest or weed control at 125 g/ha [4, 21]","pest or weed control at 500 g/ha [4, 22]",plant injury at 125 g/ha (corn (Zea mays); [23]),plant injury at 500 g/ha (corn (Zea mays); [24]),"pest or weed control at 125 g/ha [5, 25]","pest or weed control at 500 g/ha [5, 26]","pest or weed control at 125 g/ha [6, 27]","pest or weed control at 500 g/ha [6, 28]","pest or weed control at 125 g/ha [7, 29]","pest or weed control at 500 g/ha [7, 30]","pest or weed control at 125 g/ha [8, 31]","pest or weed control at 500 g/ha [8, 32]",further results
O=C1NC[C@H](c2ccc(F)c(OC(F)(F)C(F)F)c2)[C@H]1C(=O)Nc1ccccc1F [Compound 1133],90%,90%,70%,70%,30%,70%,80%,90%,30%,70%,50%,80%,90%,90%,0%,70%,60%,70%,20%,40%,"plant injury at 125 g/ha [9, 33]: 60%; plant injury at 500 g/ha [9, 34]: 70%; pest or weed control at 250 g/ha [10, 35]: 50%; pest or weed control at 250 g/ha [11, 35]: 85%; pest or weed control at 250 g/ha (rice (Oryra sativa); [35]): 0%; pest or weed control at 250 g/ha [12, 35]: 0%"
CN1CC(c2cccc(/C=C/Cl)c2)C(C(=O)Nc2ccccc2F)C1=O (centres unmarked) [Compound 1129],80%,90%,0%,0%,0%,0%,40%,90%,0%,0%,0%,0%,70%,90%,0%,0%,0%,0%,0%,0%,"plant injury at 125 g/ha [9, 33]: 0%; plant injury at 500 g/ha [9, 34]: 0%; pest or weed control at 250 g/ha [10, 35]: 20%; pest or weed control at 250 g/ha [11, 35]: 70%; pest or weed control at 250 g/ha (rice (Oryra sativa); [35]): 0%; pest or weed control at 250 g/ha [12, 35]: 0%"
COc1c(F)ccc([C@H]2CNC(=O)[C@@H]2C(=O)Nc2ccc(F)c(F)c2F)c1Cl [Compound 890],,,,,,,,,,,,,,,,,,,,,"pest or weed control at 125 g/ha [1, 14]: 90%; pest or weed control at 500 g/ha ([1]; Preemergence, visual injury vs untreated controls after approximately 10 d, read-out: Barnyardgrass plant response rating (0 to 100 scale where 0 is no effect and 100 is complete control)): 90%; pest or weed control at 125 g/ha ([2]; visual injury rating after approximately 10 d, read-out: Galium plant response rating (0 to 100 scale, 0 no effect, 100 complete control)): 50%; pest or weed control at 125 g/ha (Kochia (Kochia scoparia); visual injury rating after approximately 10 d, read-out: Kochia plant response rating (0 to 100 scale, 0 no effect, 100 complete control)): 60%; pest or weed control at 125 g/ha ([3]; visual injury rating after approximately 10 d, read-out: Barnyardgrass plant response rating (0 to 100 scale, 0 no effect, 100 complete control)): 90%; pest or weed control at 125 g/ha ([4]; visual injury rating after approximately 10 d, read-out: Blackgrass plant response rating (0 to 100 scale, 0 no effect, 100 complete control)): 20%; plant injury at 125 g/ha (corn (Zea mays); visual injury rating after approximately 10 d, read-out: Corn plant response rating (0 to 100 scale, 0 no effect, 100 complete control)): 20%; pest or weed control at 125 g/ha ([5]; visual injury rating after approximately 10 d, read-out: Foxtail, Giant plant response rating (0 to 100 scale, 0 no effect, 100 complete control)): 70%; pest or weed control at 125 g/ha ([6]; visual injury rating after approximately 10 d, read-out: Pigweed plant response rating (0 to 100 scale, 0 no effect, 100 complete control)): 0%; pest or weed control at 125 g/ha ([7]; visual injury rating after approximately 10 d, read-out: Ragweed plant response rating (0 to 100 scale, 0 no effect, 100 complete control)): 0%; pest or weed control at 125 g/ha ([8]; visual injury rating after approximately 10 d, read-out: Ryegrass, Italian plant response rating (0 to 100 scale, 0 no effect, 100 complete control)): 0%; plant injury at 125 g/ha ([9]; visual injury rating after approximately 10 d, read-out: Wheat plant response rating (0 to 100 scale, 0 no effect, 100 complete control)): 0%; pest or weed control at 250 g/ha [10, 36]: 60%; pest or weed control at 250 g/ha [11, 36]: 90%; pest or weed control at 250 g/ha (rice (Oryra sativa); [36]): 0%; pest or weed control at 250 g/ha [12, 36]: 0%"
